Assay results published in patent publication US20200276256A1, “SKIN CARE COMPOSITION” (ISN Pharma SP.Z.O.O., priority 2017, published 2020).

Assays:
[1] = tested on: HaCaT cell line infected with HHV-1; assay: Vitality VB-48 Assay, HHV-1 infected cells; type: cell-based, human; settings: Control + acyclovir, mean
Experimental: Vitality VB-48 Assay (NucleoCounter NC-3000) was used to determine the percentage estimation of keratinocytes of varied degrees of viability after 24 h incubation with Kalanchoe daigremontiana extract.
An HHV-1 suspension was added to HaCaT cell line and incubated for 1 hour to enable adsorption of virus to cells. Afterwards, the cells were incubated with a plant extract of the respective dilution for 24 hrs to assess the viability of the keratinocytes with HHV-1 incubated with the respective dilutions of the extract of the invention as compared with Acyclovir.

HHV-1 = assay: Confocal microscopy, direct immunofluorescence staining of infected HaCaT cells; type: cell-based, Human herpesvirus 1; settings: acyclovir added to infected HaCaT; 48 hrs after infection; FIG. 19
From the text: Confocal microscopy (microscope magnification—60×, digital zoom) was used to view the cell structure status and positioning 48 hrs after infection with HHV-1 (FIG. 18). The method of direct immunofluorescence staining wherein the nucleus—blue (A), viral antigen —green (B), actin—red (C), nucleus/actin (D) helps further understand the structural changes in the cells. The same confocal microscopy technique was used to view the cell structure status and positioning after HHV-1 infection and treatment with Kalanchoe daigremontiana. As before the method of direct immunofluorescence staining is nucleus—blue (A), viral antigen—green (B), actin—red (C), nucleus/actin (D).

[2] = tested on: HaCaT cell line infected with HHV-1; assay: Cell Count Assay (NucleoCounter NC-3000), HHV-1 infected cells; type: cell-based, human; settings: Control + acyclovir, HHV-1 infected HaCaT
Experimental: Next, cell viability additionally in the presence of the Herpes virus was investigated with a Cell Count Assay (NucleoCounter NC-3000). An HHV-1 suspension was added to HaCaT cell line and incubated for 1 hour to enable adsorption of virus to cells; the cells were then incubated with the extract, in the respective dilution ratios, for 24 hrs.

Nc1nc2c(ncn2COCCO)c(=O)[nH]1 [acyclovir]
dead cells % [1]: 77.1%
healthy cells % [1]: 3.27%
lower viability cells % [1]: 19.51%
amount of viral antigen (HHV-1): lower amount of viral antigen
All cells Cell % [2]: 79.67%
All cells Mean intensity [2]: 160070.3
All cells Number of cells [2]: 7648
Dead cells Cell % [2]: 24.05%
Dead cells Mean intensity [2]: 152872.9
Dead cells Number of cells [2]: 5683
Viability [%] [2]: 25.7%
Viability [%] ([2]; listed as Acyclovir): 25%
